Reference: the supplement of paper PMC10307832

compound: Cc1cnc(CNC(=O)c2c(=O)c3ccc(N4CCCN(C)CC4)nc3n3c2sc2ccccc23)cn1 [CX-5461] + N=C(N)NC(=N)NCCc1ccccc1 [Phenformin] (partner 250 µM); experiment: relative viability (nuclei count vs DMSO), 5 days (fraction); higher = more cells survive; details: first compound 0.01 µM
Summary of the method: (§1)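 Relative viability is defined as nuclei in treated wells over nuclei in vehicle wells. Duplicate plates were run and medians reported. Lung cancer cell lines in 1536-well plates were dosed by pin tool one day after seeding, with one drug or with a fixed anchor-drug dose plus five library-drug doses (not always all listed) in √10 steps, and nuclei were counted after 5 days.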

First: HCC-44
Second: SW 900
The relative viability of the first is lower: 0.179 for the first, 0.656 for the second.

First: LU99A
Second: BEN
The relative viability of the first is higher: 0.911 for the first, 0.28 for the second.

Compared with HARA, HCC-78 is higher in relative viability: 0.416 for the first, 0.729 for the second.

First: NCI-H322M
Second: LCLC-97TM1
The relative viability of the first is higher: 0.821 for the first, 0.397 for the second.

Compared with NCI-H2009, A-427 is lower in relative viability: 0.501 for the first, 0.338 for the second.

Going from NCI-H441 to NCI-H661, the relative viability falls from 0.758 to 0.285.

First: NCI-H1734
Second: NCI-H460
The relative viability of the first is lower: 0.411 for the first, 0.545 for the second.

Going from NCI-H2347 to SW 1573, the relative viability falls from 0.546 to 0.421.

Going from NCI-H1793 to 201T, the relative viability rises from 0.388 to 0.468.

First: NCI-H1915
Second: HCC-827
The relative viability of the first is lower: 0.375 for the first, 0.406 for the second.

Going from LXF-289 to NCI-H23, the relative viability rises from 0.523 to 0.769.

Compared with NCI-H647, CAL-12T is higher in relative viability: 0.518 for the first, 0.643 for the second.

First: NCI-H1651
Second: EPLC-272H
The relative viability of the first is higher: 0.322 for the first, 0.278 for the second.

same assay, conditions: first compound 0.03162 µM

First: HOP-62
Second: HCC-44
The relative viability of the first is higher: 0.713 for the first, 0.205 for the second.

Compared with SW 900, LU99A is higher in relative viability: 0.641 for the first, 0.855 for the second.

Going from BEN to HARA, the relative viability rises from 0.263 to 0.414.

First: HCC-78
Second: NCI-H322M
The relative viability of the first is lower: 0.66 for the first, 0.945 for the second.

Compared with LCLC-97TM1, NCI-H2009 is lower in relative viability: 0.479 for the first, 0.441 for the second.

Going from A-427 to NCI-H441, the relative viability rises from 0.348 to 1.05.

Compared with NCI-H661, NCI-H1734 is higher in relative viability: 0.286 for the first, 0.376 for the second.

Going from NCI-H460 to NCI-H2347, the relative viability falls from 0.483 to 0.361.

Compared with SW 1573, NCI-H1793 is higher in relative viability: 0.369 for the first, 0.392 for the second.

First: 201T
Second: NCI-H1915
The relative viability of the first is higher: 0.431 for the first, 0.364 for the second.

Going from HCC-827 to LXF-289, the relative viability rises from 0.426 to 0.526.

Going from NCI-H23 to NCI-H647, the relative viability falls from 0.875 to 0.575.

Compared with CAL-12T, NCI-H1651 is lower in relative viability: 0.653 for the first, 0.26 for the second.

Work on EPLC-272H yielded a relative viability of 0.299.

same assay, conditions: first compound 0.1 µM

First: HOP-62
Second: HCC-44
The relative viability of the first is higher: 0.742 for the first, 0.145 for the second.

Going from SW 900 to LU99A, the relative viability rises from 0.743 to 0.821.

Going from BEN to HARA, the relative viability rises from 0.253 to 0.48.

Going from HCC-78 to NCI-H322M, the relative viability rises from 0.764 to 0.818.

First: LCLC-97TM1
Second: NCI-H2009
The relative viability of the first is higher: 0.415 for the first, 0.24 for the second.

First: A-427
Second: NCI-H441
The relative viability of the first is lower: 0.36 for the first, 0.779 for the second.

First: NCI-H661
Second: NCI-H1734
The relative viability of the first is lower: 0.316 for the first, 0.374 for the second.

First: NCI-H2347
Second: SW 1573
The relative viability of the first is higher: 0.337 for the first, 0.151 for the second.

First: NCI-H1793
Second: 201T
The relative viability of the first is lower: 0.433 for the first, 0.464 for the second.

Going from NCI-H1915 to HCC-827, the relative viability rises from 0.376 to 0.444.

First: LXF-289
Second: NCI-H23
The relative viability of the first is lower: 0.521 for the first, 0.834 for the second.

First: NCI-H647
Second: CAL-12T
The relative viability of the first is higher: 0.401 for the first, 0.328 for the second.

Work on EPLC-272H yielded a relative viability of 0.264.

same assay, conditions: first compound 0.3162 µM

Compared with HOP-62, HCC-44 is lower in relative viability: 0.572 for the first, 0.229 for the second.

Going from SW 900 to LU99A, the relative viability falls from 0.532 to 0.528.

First: BEN
Second: HCC-78
The relative viability of the first is lower: 0.28 for the first, 0.783 for the second.

Going from NCI-H322M to NCI-H2009, the relative viability falls from 0.473 to 0.472.

First: NCI-H441
Second: NCI-H661
The relative viability of the first is higher: 0.86 for the first, 0.259 for the second.

Going from NCI-H1734 to NCI-H460, the relative viability rises from 0.306 to 0.483.

First: NCI-H2347
Second: SW 1573
The relative viability of the first is higher: 0.338 for the first, 0.303 for the second.

First: 201T
Second: NCI-H1915
The relative viability of the first is higher: 0.441 for the first, 0.32 for the second.

Going from HCC-827 to LXF-289, the relative viability falls from 0.406 to 0.255.

Going from NCI-H23 to NCI-H647, the relative viability falls from 0.803 to 0.364.

Compared with CAL-12T, NCI-H1651 is lower in relative viability: 0.531 for the first, 0.251 for the second.

same assay, conditions: first compound 1 µM

First: HOP-62
Second: HCC-44
The relative viability of the first is higher: 0.472 for the first, 0.136 for the second.

Going from SW 900 to LU99A, the relative viability rises from 0.209 to 0.21.

Compared with BEN, HARA is higher in relative viability: 0.268 for the first, 0.353 for the second.

First: HCC-78
Second: NCI-H322M
The relative viability of the first is higher: 0.55 for the first, 0.521 for the second.

First: LCLC-97TM1
Second: NCI-H2009
The relative viability of the first is higher: 0.384 for the first, 0.282 for the second.

Compared with A-427, NCI-H441 is higher in relative viability: 0.223 for the first, 0.305 for the second.

First: NCI-H661
Second: NCI-H1734
The relative viability of the first is higher: 0.23 for the first, 0.218 for the second.

Compared with NCI-H460, NCI-H2347 is higher in relative viability: 0.0194 for the first, 0.397 for the second.

First: SW 1573
Second: NCI-H1793
The relative viability of the first is lower: 0.121 for the first, 0.289 for the second.

Compared with 201T, NCI-H1915 is lower in relative viability: 0.388 for the first, 0.31 for the second.

Going from HCC-827 to LXF-289, the relative viability falls from 0.359 to 0.276.

First: NCI-H23
Second: NCI-H647
The relative viability of the first is higher: 0.406 for the first, 0.24 for the second.

Compared with CAL-12T, NCI-H1651 is lower in relative viability: 0.35 for the first, 0.132 for the second.

EPLC-272H was tested, and the relative viability was 0.361.

compound: O=C(Nc1cc(C(F)(F)F)cc(C(F)(F)F)c1)c1cc(Cl)ccc1O [IMD-0354] + N=C(N)NC(=N)NCCc1ccccc1 [Phenformin] (partner 250 µM); experiment: as above; details: first compound 0.04 µM
Summary of the method: as §1

Going from HOP-62 to HCC-44, the relative viability falls from 0.842 to 0.241.

First: SW 900
Second: LU99A
The relative viability of the first is higher: 0.661 for the first, 0.529 for the second.
